From JPH09183729A, “凍結乾燥ウラシルを含有する抗腫瘍医薬組成物” (priority 1995, dated 1997)
Converted amounts (≈) assume the structure as drawn.

What was measured:
[1] = FT compared with 5-FU; UFT compared with 5-FU, FT and other antitumour drugs; cited from earlier work
[2] = cited from earlier work
physchem = settings: water, saturated solution concentration in water

Compound	toxicity / side effects [1]	solubility in water ([2]; 25℃ water, Merck Index) [g/100g]	solubility in alcohol and ether ([2]; alcohol and ether)	solubility in cold water ([2]; cold water)	solubility (physchem) [mg/mL]
O=c1[nH]cc(F)c(=O)[nH]1 [5-FU, 5-fluorouracil]	骨髄機能抑制などの重篤な副作用があり	–	–	–	–
O=c1cc[nH]c(=O)[nH]1 [ウラシル]	–	0.358	難溶	わずかに溶け	~14.7 (≈ 131 mM)
